Test results published in patent US20070186358A1, “Concentrated optical brightener solutions” (priority 2004, published 2007).

How the values were obtained:
[1] = Viscosity of concentrated aqueous solution; type: physicochemical; details: aqueous solution of sodium salt, 0.330 mol/kg, 2.0% sodium chloride; at 20° C.
Description: (§1) A solution of 21.3 parts aniline-2,5-disulphonic acid and 6.7 parts sodium hydroxide in 30 parts water is added to a stirred suspension of 15.5 parts cyanuric chloride in 50 parts ice water. The pH is kept at 6 by the dropwise addition of 30% sodium hydroxide. The mixture is stirred below 10° C. until primary aromatic amine groups can no longer be detected by the diazo reaction. A solution of 14.8 parts 4,4′-diaminostilbene-2,2′-disulphonic acid and 3.2 parts sodium hydroxide in 20 parts water is then added, the pH is adjusted to between 6.5 and 7.5 by the addition of 30% sodium hydroxide and the mixture is stirred at 30° C. until a negative diazo reaction is obtained. A solution of 12.2 parts L-aspartic acid in 22.9 parts 16% sodium hydoxide is added, and the mixture is heated at reflux for 6 hours, the pH being kept at 7.5 to 8.5 by the addition of 30% sodium hydroxide. The aqueous solution so-formed of (2) in the form of its sodium salt, which is approximately 0.167 mol/kg in concentration, is desalinated by membrane filtration and concentrated to 0.330 mol/kg (50% by weight).
(§2) An aqueous solution of (3) in the form of its sodium salt at a concentration of 0.330 mol/kg (51% by weight) is prepared as described in Example 1 but using 13.5 parts L-glutamic acid in place of 12.2 parts L-aspartic acid.

[2] = Storage stability of concentrated aqueous solution (precipitation at 5° C.); type: physicochemical; details: aqueous solution of sodium salt, 0.330 mol/kg, 2.0% sodium chloride, no solubilizing agent; 2 weeks at 5° C.
Description: as §1, §2

For `O=C(O)CC(Nc1nc(Nc2ccc(/C=C/c3ccc(Nc4nc(Nc5cc(S(=O)(=O)O)ccc5S(=O)(=O)O)nc(NC(CC(=O)O)C(=O)O)n4)cc3S(=O)(=O)O)c(S(=O)(=O)O)c2)nc(Nc2cc(S(=O)(=O)O)ccc2S(=O)(=O)O)n1)C(=O)O` (stereo not shown) [Example 1], the viscosity [1] was 0.23-0.25 Pa.s and the precipitation on storage [2] was “no signs of precipitation”.
In the case of `O=C(O)CCC(Nc1nc(Nc2ccc(/C=C/c3ccc(Nc4nc(Nc5cc(S(=O)(=O)O)ccc5S(=O)(=O)O)nc(NC(CCC(=O)O)C(=O)O)n4)cc3S(=O)(=O)O)c(S(=O)(=O)O)c2)nc(Nc2cc(S(=O)(=O)O)ccc2S(=O)(=O)O)n1)C(=O)O` (stereo not shown) [Example 2], the viscosity [1] is reported as 0.23-0.25 Pa.s and the precipitation on storage [2] is reported as “no signs of precipitation”.
